Results taken from patent EP0874631B1, “USE OF VALACICLOVIR FOR THE MANUFACTURE OF A MEDICAMENT FOR THE TREATMENT OF GENITAL HERPES BY A SINGLE DAILY APPLICATION” (priority 1996, dated 1997).
Structures can show the parent of a compound that is named as a salt. Where two headings read alike, the source gives them in different places.

Experiments:
Type in all cases: in vivo, human
recurrent genital herpes = assay: open-label 1-year study of suppressive therapy in patients previously on chronic acyclovir suppression
Experimental: OBJECTIVE: To document the number of genital herpes outbreaks during a 1-year period of suppressive therapy with valaciclovir hydrochloride in patients previously receiving chronic suppressive therapy with acyclovir. METHODS: A total of 127 patients (81 Males, 46 Females) from 11 study sites enrolled in this open-label study. […] Upon discontinuation of acyclovir, patients received 500 mg valaciclovir hydrochloride once daily. For any genital herpes recurrence, patients self-initiated treatment with valaciclovir hydrochloride 500 mg twice daily for 5 days, then resumed once daily therapy. Patients documented recurrences in a diary and returned to the clinic every three months for drug safety and recurrence evaluation.

[1] = tested on: genital herpes simplex virus (HSV) infection; conditions: for recurrences experienced by placebo patients prevented or delayed / recurrences prevented or delayed: 52 weeks; for safety profiles (valaciclovir, aciclovir and placebo compared): in vivo
Source text: Objective: To determine the efficacy and safety of 4 doses of oral valaciclovir compared with aciclovir and placebo for the suppression of genital herpes in otherwise healthy patients.
Methods: This study was a multi-centre, international, six-arm, parallel group, randomised, double-blind comparison of the efficacy and safety of 4 doses of oral valaciclovir with oral aciclovir and placebo for the suppression of recurrent episodes of genital herpes simplex virus (HSV) infection in immunocompetent patients. A total of 1279 patients with a history of recurrent genital herpes were randomised into one of 6 treatment arms with a 2:2:2:2:2:1 treatment allocation and followed for 52 weeks. Patients visited the clinic at monthly intervals and on Days 1 and 5 of a genital HSV recurrence. Safety was assessed by adverse experience reporting at each visit and by clinical chemistry and haematology testing every 3 or 6 months respectively.
274 patients received 250 mg twice daily valaciclovir (reference example); 269 patients received 1000 mg once daily valaciclovir; 266 patients received 500 mg once daily valaciclovir; 269 patients received 250 mg once daily valaciclovir; 267 patients received 400 mg twice daily aciclovir; and 134 patients received placebo.

[2] = tested on: frequently recurrent genital herpes; assay: double blind, placebo controlled multicentre clinical trial of once daily suppressive therapy; conditions: 500 mg once daily
Experimental: In another study once daily valaciclovir (as the hydrochloride salt), was evaluated as suppressive therapy in a double blind, placebo controlled multicentre clinical trial in otherwise healthy immunocompetent patients with frequently recurrent genital herpes. A total of 382 patients with a history of >8 genital herpes recurrences per year were randomised (3:1) to treatment with once daily valaciclovir (500 mg) or placebo for 16 weeks. Patients experiencing a recurrence discontinued double blind therapy and received open label episodic valaciclovir (500 mg twice daily) for 5 days. They then continued on open label daily valaciclovir, as did those completing the 16 week double blind phase of study without evidence of a breakthrough recurrence, for a total of 48 weeks. Patients were assessed 4-weekly (double blind phase) and every 8 weeks thereafter. The primary efficacy end-point was time to first genital herpes recurrence.

[3] = 400 mg twice daily, entire tenth study year of acyclovir suppression
[4] = 250 mg twice daily (reference example)

| SMILES | mean quarterly recurrence free rate (recurrent genital herpes; [3]) [%] | yearly recurrence free rate (recurrent genital herpes; [3]) [%] | patients recurrence-free after 12 months ([1]; 400 mg twice daily) | recurrences experienced by placebo patients prevented or delayed ([1]; 400 mg twice daily) | safety profiles (valaciclovir, aciclovir and placebo compared) [1] | total recurrence free rate (recurrent genital herpes; 500 mg once daily, after six months of suppressive therapy (93 of 126 patients)) [%] | patients remained free of recurrences (recurrent genital herpes; 500 mg once daily, after the first three months of suppressive therapy (102 of 126 patients)) [%] | patients remained free of recurrences (recurrent genital herpes; 500 mg once daily, following the next three months of suppressive therapy (101 of 119 patients)) [%] | tolerability (recurrent genital herpes; 500 mg once daily, for 6 months) | reduction in recurrence rate relative to placebo ([2]; 16 weeks, intent-to-treat population) [%] | tolerability ([2]; adverse events infrequent and generally mild) | patients remained recurrence-free during the study period ([1]; 250 mg once daily, 12 months) [%] | recurrences prevented or delayed ([1]; 250 mg once daily) [%] | patients recurrence-free after 12 months [1, 4] | recurrences experienced by placebo patients prevented or delayed [1, 4] | patients recurrence-free at 12 months ([1]; 500 mg once daily) | recurrences prevented or delayed ([1]; 500 mg once daily) [%] | patients recurrence-free after 12 months ([1]; 1000 mg once daily) | recurrences experienced by placebo patients prevented or delayed ([1]; 1000 mg once daily) |
| --- | --- | --- | --- | --- | --- | --- | --- | --- | --- | --- | --- | --- | --- | --- | --- | --- | --- | --- | --- |
| Nc1nc2c(ncn2COCCO)c(=O)[nH]1 [acyclovir, 9-[(2-hydroxyethoxy)methyl]guanine, reference compound] | 89 | 75 | approximately half | 78-79% | similar | – | – | – | – | – | – | – | – | – | – | – | – | – | – |
| CC(C)[C@H](N)C(=O)OCCOCn1cnc2c(=O)[nH]c(N)nc21 [valaciclovir hydrochloride, 2-[(2-amino-1,6-dihydro-6-oxo-9H-purin-9-yl)methoxy]ethyl-L-valinate hydrochloride] | – | – | – | – | – | 74 | 81 | 85 | well tolerated | – | – | – | – | – | – | – | – | – | – |
| CC(C)[C@H](N)C(=O)OCCOCn1cnc2c(=O)[nH]c(N)nc21 [valaciclovir, 2-[(2-amino-1,6-dihydro-6-oxo-9H-purin-9-yl)methoxy]ethyl L-valinate] | – | – | – | – | similar | – | – | – | – | 85 | well tolerated | 22 | 54 | approximately half | 78-79% | Forty | 71 | approximately half | 78-79% |
